# Tests used:
# [1] = system: human monocyte-derived DCs; details: LPS 100 ng/ml, western blot
# Protocol: Western blot analysis. […] Images have been cropped for presentation.
# (§1) Generation of mouse and human DCs. For the generation of mouse DCs, bone marrow cells were harvested from the femurs and tibias of mice and cultured in 6-well tissue culture plates (Costar) for 8 days in complete medium supplemented with 20 ng/ml GM-CSF and 10 ng/ml IL-4. BDNs, BDN-derived lipid or SFN was added to some wells on day 0. To obtain human DCs, peripheral blood mononuclear cells were isolated from healthy donors by Ficoll-Hypaque Plus (GE Healthcare). These studies were approved by the Institutional Review Board of University of Louisville. Monocytes were purified by a discontinuous Percoll gradient (GE Healthcare) and positive selection with the Monocyte Isolation kit (purity, >90%; Miltenyi Biotec). Monocytes were cultured in RPMI-1640 complete medium supplemented with 10% (vol/vol) heat-inactivated PCS, gentamicin ([…]), 2-mercaptoethanol (50 μM) and L-glutamine (2 mM; all from Gibco) containing IL-4 (5 ng/ml; Sigma) and recombinant human GM-CSF (35 ng/ml; Sigma) with or without SFN (10 μM). In some experiments, DCs were exposed for 24 h to LPS (100 ng/ml) with or without SFN.
# [2] = system: DSS-induced colitis; assay: Transfer of BMDCs treated with LN SFN knock-out / knock-in nanoparticles into mice with DSS colitis; assay type: in vivo, mouse
# Protocol: FIGS. 7A-7F include graphs and images showing that BDN SFN protects colitis by inducing regulatory DCs, including graphs and images showing: (FIG. 7A) the lipids extracted from BDN-derived liposome-like nanoparticles (LN) or LN with SFN knock-out (LN-SFN^−/− or knock-in (LN-SFN^+/+) and a standard SFN were separated on a thin-layer chromatography plate and developed, where a representative image was scanned using an Odyssey Scanner; (FIGS. 7B-7D) BMDCs that were treated with CBA (20 μg/ml) for 24-48 hr in the presence of DMSO, LN-SFN^−/− or LN-SFN^+/+ and were injected i.v. […] (FIG. 7E) cytokine analysis by qRT-PCR of RNA recovered from colonic LPL1; and (FIG. 7F) the cell number of CD11b^+ DCs isolated from colon and MLN in DSS-induced colitis after adoptive transfer, where data are mean±SEM. (n=5), *P<0.05, **P<0.01 (Student's t-test). Lipid extraction, TLC and lipidomic analysis. Total lipid extraction from BDNs was performed according to the method of Bligh and Dyer, and the lipids were dissolved in chloroform or methanol for analysis. […] Developed plates were initially air-dried, then sprayed with CuSO4-phosphoric acid reagent (10% CuSO4 in 8% phosphoric acid), and followed by charring at 100° C. for 10 min. […] Total lipids were determined using the phosphate assay as described previously. […] Colitis was assessed as described above.
# [3] = system: CD4+ T cells
# Protocol: as §1
# [4] = system: BMDCs
# Protocol: as §1
# [5] = system: MC38 colon cancer cells; assay: MC38 colon cancer cells treated with SFN or BDN-derived lipids (RT-PCR); assay type: cell-based, mouse
# Protocol: RNA extraction and PCR. Total RNA was isolated from the small intestine and colon or tumor tissue using the Qiagen RNeasy RNA isolation Kit and was used to synthesize cDNA. RNA (1 μg) was reverse-transcribed with Superscript III and random primers (Invitrogen). For quantitation of genes of interest, cDNA samples were amplified in a CFX96 Realtime System (Bio-Rad Laboratories, Hercules, Calif., USA) using SYBR Green Master Mix (Invitrogen) and specific primers (Table 2) according to the manufacturer's instructions. Fold changes in mRNA expression between treatments and controls were determined by the […] as described. Results for each sample were normalized to the concentration of GAPDH mRNA measured in the same samples and expressed as fold increase over baseline levels, which are set at a value of 1. Differences between groups were determined using a two-sided Student's t-test and one-way ANOVA. Error bars on plots represent±SEM, unless otherwise noted. All primers were purchased from Eurofins MWG Operon.
# [6] = system: intestinal tumorigenesis
# Protocol: Polyamine pools and Enzyme analyses. Tumor tissue was removed from intestine and was snap-frozen and stored at −70° C. Following removal of tumors, the normal small intestinal and colonic mucosa was scraped with a glass slide and snap-frozen. Frozen tissues were crushed into a fine powder. Specimens were homogenized in 1.2N perchloric acid and centrifuged to obtain the soluble supernatant extracts for polyamine analyses. Intracellular polyamine pools and acetylated polyamine pools were extracted with 1.2N perchloric acid, dansylated with dansyl chloride. The derivatized polyamines were separated on and analyzed using high-performance liquid chromatography on 150×4.6 mm ZORBAX SB-C18 column (Agilent) using methods described elsewhere. Polyamines were also quantitated by ELISA kit (Mybiosource, # MBS094198). For analysis of the enzyme activity, intestinal mucosal samples (4 mm^2) were immediately transferred to vials containing 0.5 ml of an ice-cold buffer [50 mM Tris-HCl (pH 7.5), 0.1 mM EDTA, and 0.1 mM pyridoxal phosphate)] and then homogenized and centrifuged. SSAT and ODC activities were determined by using C-labeled substrates and scintillation counting of end products produced as described previously (31) (or Cancer research SSAT mice).
# [7] = SFN 10 μM + GM-CSF vs GM-CSF alone
smiles,measurement,setting,value
"C[S+]([O-])CCCCN=C=S (stereo not drawn) [SFN, Sulforaphane]",phosphorylation of AMPK at Thr172,[1],increased phosphorylation of AMPK at Thr172
same,phosphorylation of S6 and p70S6K,[1],decreased S6 phosphorylation
same,numbers of transferred BMDC reaching the MLNs and colon,[2],lower numbers
same,CD25 on CD4+ T cells induced by DC^SFN,[3]; vs DC^DMSO,lower expression
same,PD-1 on CD4+ T cells induced by DC^SFN,[3]; vs DC^DMSO,higher levels
same,IFN-γ production by CD4+ T cells primed with LPS-DC^SFN,[3]; vs LPS-treated DC^DMSO,less IFN-γ
same,IL-10 production by CD4+ T cells primed with LPS-DC^SFN,[3]; vs LPS-treated DC^DMSO,more IL-10
same,IFN-γ production by CD4 T cells primed with DC^SFN,"[3]; without LPS, vs DC^DMSO",negligible production of IFN-γ
same,IL-10 production (ELISA),"[4]; LPS 18 h, vs LPS alone",more IL-10
same,"IL-12, IL-23 production (ELISA)","[4]; LPS 18 h, vs LPS alone","produced less IL-12, IL-23"
same,expression of CD11c,[4]; [7],lower expression of CD11c
same,expression of PD-L1,[4]; [7],higher expression of PD-L1
same,expression of CSN8 and ODC,"[5]; RT-PCR, vs DMSO",inhibited
same,expression of Nrf2 and SSAT1,"[5]; RT-PCR, vs DMSO",strongly activated
same,increase in SSAT1 caused by SFN,[5]; knockdown of both Nrf2 and CSN8,significantly inhibited the increase
NCCCCN [putrescine],polyamines pool in the small intestine,[6]; 1% in drinking water,large increase
same,tumor number,"[6]; APC^Min/+CSN8^fl/fl mice, vs control mice","an increase, but not statistically significant increase"
same,epithelial cell proliferation (Ki-67) in the small intestines,[6]; APC^Min/+CSN8^ΔIEC,stimulated
same,polyp numbers in the small intestines,[6]; APC^Min/+CSN8^ΔIEC,strikingly increased
same,"expression of nuclear Stat3, c-Myc and p21^(Cip1/WAF1)","[6]; APC^Min/+CSN8^ΔIEC mice, to that seen in APC^Min/+CSN8^fl/fl",restored the expression
same,polyp number in the colon,"[6]; mouse, in vivo",no effect
